Source: patent US9879243B2, “Culture medium for cell growth and transfection” (LIFE TECHNOLOGIES CORPORATION, priority 2001, dated 2018)

Columns and labels:
Conditions in all cases: third passage
293 cells = assay: Effect of replacement compounds on the growth of 293 cells in 293 SFM without transferrin, three passages; type: cell-based, human
Procedure: Semi-confluent adherent cultures of 293 Cells (ATCC, CRL 1573) are readily adapted to suspension culture. The cells are first detached with a solution of Trypsin-EDTA (0.05% Trypsin, 0.53 mM Na4EDTA), and then resuspended in conventional medium supplemented with 10% FBS to inhibit the trypsin. The resuspended cells are centrifuged at 200×g for five minutes.
The initial seeding density of the 293 cells after conversion to suspension culture is 1×10^6 cells/mL. The cells are shaken on a rotary shaker at 150 rpm in a 37° C. incubator equilibrated with 8% CO2-92% air. […] Because 293 cells have a tendency to aggregate, the cells can be vortexed vigorously for approximately 45 seconds to obtain a predominantly single cell suspension at the time of passaging and counting. After several passages in suspension culture, the maximum achievable density can be determined.
(§1) For replacement compound evaluation, 293 cells were established in 125 mL shaker flasks at an initial viable seeding density of 2×10^5 cells/mL in a final volume of 20 mL. All cultures were maintained at 37° C. in humidified air containing 8% CO2. To eliminate transferrin carry-over effects, cells were subcultured at 4 day intervals for a total of three passages. At each subculturing, cells were seeded at a density of 2×10^5 cells/mL. Positive control cultures contained 5 μg/mL human holo-transferrin while negative control cultures were established in the absence of either transferrin or replacement compound. Replacement compound stocks were prepared at 0.1M-0.2M in ddH2O and solubilized when necessary using 5N NaOH or HCl. Iron complexes were established using 0.2 M replacement compound and iron stocks mixed 1:1 (v/v) and incubated for 5-10 minutes at 22° C. All solutions containing replacement compounds were filter sterilized using a 0.22 μm Millex-GV filter prior to addition to transferrin and serum-free media.
Except where noted, replacement compounds were evaluated either alone or in combination with ferric chloride or ferrous sulfate at 25 μM, 50 μM and 100 μM. When used in combination, the replacement compounds were used in equimolar concentration with iron ions. Values in Table 4 represent the mean percentage of control growth for duplicate cultures determined at the third passage.
When added to the medium formulation uncomplexed, the replacement compound is listed alone, when added as a complex with a transition metal, the source of the transition metal is listed with the replacement compound.

CHO cells = assay: Effect of replacement compounds on the growth of CHO cells in CD CHO medium without transferrin, three passages; type: cell-based, Chinese hamster
Procedure: as §1, with “The ability of replacement compounds to support cellular growth in the absence of transferrin was evaluated using CHO cells maintained in CD CHO medium (Invitrogen Corporation, Carlsbad, Calif., the formulation of which is described in WO 98/08934). Stock cultures containing 5 μg/mL human holo-transferrin were prepared in CD CHO medium. For” for “For”, “CHO” for “293”, “1×10^5” for “2×10^5”, “passages.” for “passages. At each subculturing, cells were seeded at a density of 2×10^5 cells/mL.”, “0.2M” for “0.2 M”
Except where noted, replacement compounds were evaluated either alone or in combination with ferric chloride or ferrous sulfate at 25 μM, 50 μM and 100 μM. Values in the table represent the mean percentage of control growth for duplicate cultures determined at the third passage.
The ability of various replacement compounds to substitute for transferrin in the culture of CHO cells was determined. When added to the medium formulation un-complexed, the replacement compound is listed alone, when added as a complex with a transition metal, the source of the transition metal is listed with the metal binding compound.

Sp2/0 cells = assay: Effect of replacement compounds on the growth of Sp2/0 cells in CD Hybridoma medium without transferrin, three passages; type: cell-based
Procedure: The ability of replacement compounds to support cellular growth in the absence of transferrin was evaluated using Sp2/0 cells maintained in CD Hybridoma medium (Invitrogen Corporation, Carlsbad, Calif.).
Stock cultures containing 5 μg/mL human holo-transferrin were prepared in CD Hybridoma medium. For replacement compound evaluation, Sp2/0 cells were established at an initial viable cell density of 0.5×10^5 cells/mL in stationary culture using 75 cm^2 tissue culture flasks in a final volume of 20 mL. All cultures were maintained at 37° C. in humidified air containing 8% CO2. To eliminate transferrin carry-over effects, cells were subcultured at the same seeding density at 4 day intervals for a total of three passages. Positive control cultures contained 5 μg/mL human holo-transferrin while negative control cultures were established in the absence of either transferrin or replacement compound. Replacement compound stocks were prepared at 0.1M-0.2M in ddH2O and solubilized when necessary using 5N NaOH or HCl. Iron complexes were established using 0.2M replacement compound and iron stocks mixed 1:1 (v/v) and incubated for 5-10 minutes at 22° C. All solutions containing replacement compounds were filter sterilized using a 0.22 μm Millex-GV filter prior to addition to transferrin and serum-free media.
Except where otherwise noted, replacement compounds were evaluated either alone or in combination with ferric chloride or ferrous sulfate at 25 μM, 50 μM and 100 μM. Values in the table represent the mean percentage of control growth for duplicate cultures determined at the third passage.
When added to the medium formulation un-complexed, the replacement compound is listed alone, when added as a complex with a transition metal, the source of the transition metal is listed with the replacement compound.

[1] = 25 μM, control 5 μg/mL human holo-transferrin, iron equimolar where combined
[2] = 50 μM, control 5 μg/mL human holo-transferrin
[3] = 100 μM, control 5 μg/mL human holo-transferrin
[4] = 25 μM, control 5 μg/mL human holo-transferrin

Row | Compound | mean percentage of control growth (293 cells; [1]) | mean percentage of control growth (293 cells; [2]) | mean percentage of control growth (293 cells; [3]) | mean percentage of control growth (Sp2/0 cells; [4]) | mean percentage of control growth (Sp2/0 cells; 50 μM) | mean percentage of control growth (Sp2/0 cells; 100 μM) | further results
1 | Nicotinic Acid-N-Oxide•Ferric Chloride | 104 percentage of control growth | 80 percentage of control growth | 79 percentage of control growth |  |  |  | mean percentage of control growth (CHO cells; [4]): 60 percentage of control growth; mean percentage of control growth (CHO cells; 50 μM): 84 percentage of control growth; mean percentage of control growth (CHO cells; 100 μM): 105 percentage of control growth
2 | Myo-lnositol•Ferric Chloride | 79 percentage of control growth | 87 percentage of control growth | 85 percentage of control growth |  |  |  | 
3 | [Cl][Fe]([Cl])[Cl].c1ccc(-c2ccccn2)nc1 [2,2-Dipyridyl•Ferric Chloride] | 51 percentage of control growth | 96 percentage of control growth | 0 percentage of control growth |  |  |  | 
4 | Cc1occc(=O)c1O.[Cl][Fe]([Cl])[Cl] [3-Hydroxy-2-Methyl-4-Pyrone•Ferric Chloride] |  |  |  | 60 percentage of control growth | 71 percentage of control growth | 75 percentage of control growth | 
5 | O=C(O)c1ccccn1.O=S(=O)([O-])[O-].[Fe+2] [2-Pyridinecarboxylic Acid•Ferrous Sulfate] | 67 percentage of control growth | 48 percentage of control growth | 0 percentage of control growth |  |  |  | 
6 | Glycine•Ferric Chloride | 81 percentage of control growth | 71 percentage of control growth | 72 percentage of control growth | 34 percentage of control growth | 61 percentage of control growth | 56 percentage of control growth | 
7 | O=C(O)CN(CC(=O)O)CC(=O)O [Nitriloacetic Acid] |  |  |  | 0 percentage of control growth | 0 percentage of control growth | 0 percentage of control growth | 
8 | Sorbitol•Ferrous Sulfate | 58 percentage of control growth | 69 percentage of control growth | 83 percentage of control growth |  |  |  | 
9 | 2-Hydroxynicotinic Acid•Ferric Chloride |  |  | 0 percentage of control growth | 64 percentage of control growth | 82 percentage of control growth | 85 percentage of control growth | mean percentage of control growth (293 cells; 150 μM): 0 percentage of control growth; mean percentage of control growth (293 cells; 200 μM): 99 percentage of control growth
10 | O=[N+]([O-])c1ncccc1O.[Cl][Fe]([Cl])[Cl] [3-Hydroxy-2-Nitropyridine•Ferric Chloride] |  |  |  | 52 percentage of control growth | 62 percentage of control growth | 72 percentage of control growth | 
11 | Glutamic Acid•Ferric Chloride | 102 percentage of control growth | 68 percentage of control growth | 83 percentage of control growth |  |  |  | 
12 | Nitriloacetic Acid•Ferrous Sulfate | 75 percentage of control growth | 95 percentage of control growth | 0 percentage of control growth |  |  |  | 
13 | CC(=O)N[C@@H](CS)C(=O)O.[Cl][Fe]([Cl])[Cl] [N-Acetyl-Cysteine•Ferric Chloride] | 88 percentage of control growth | 82 percentage of control growth | 52 percentage of control growth |  |  |  | 
14 | O=C(O)c1cccc(O)c1O.[Cl][Fe]([Cl])[Cl] [2,3-Dihydrobenzoic Acid•Ferric Chloride] |  |  |  |  |  |  | mean percentage of control growth (CHO cells; [4]): 71 percentage of control growth; mean percentage of control growth (CHO cells; 50 μM): 0 percentage of control growth; mean percentage of control growth (CHO cells; 100 μM): 0 percentage of control growth
15 | Mimosine•Ferric Chloride | 64 percentage of control growth | 55 percentage of control growth | 80 percentage of control growth |  |  |  | 
16 | Morpholine•Ferric Chloride |  |  |  | 54 percentage of control growth | 64 percentage of control growth | 81 percentage of control growth | 
17 | Lysine•Ferric Chloride |  |  |  |  |  |  | mean percentage of control growth (CHO cells; [4]): 51 percentage of control growth; mean percentage of control growth (CHO cells; 50 μM): 79 percentage of control growth; mean percentage of control growth (CHO cells; 100 μM): 98 percentage of control growth
18 | Asparagine•Ferric Chloride |  |  |  | 36 percentage of control growth | 51 percentage of control growth | 54 percentage of control growth | 
19 | [O-][n+]1cccc(O)c1 [3-Hydroxypyridine-N-Oxide] | 4 percentage of control growth | 4 percentage of control growth | 4 percentage of control growth |  |  |  | 
20 | Acetohydroxamic Acid•Ferric Chloride | 83 percentage of control growth | 22 percentage of control growth | 0 percentage of control growth |  |  |  | mean percentage of control growth (Sp2/0 cells; 5 μM): 40 percentage of control growth; mean percentage of control growth (Sp2/0 cells; 10 μM): 48 percentage of control growth; mean percentage of control growth (Sp2/0 cells; 20 μM): 47 percentage of control growth
21 | Glutamine•Ferric Chloride |  |  |  | 36 percentage of control growth | 55 percentage of control growth | 65 percentage of control growth | 
